Data as given in US20240217966A1, “PHARMACEUTICAL COMPOSITION CONTAINING GLP-1 RECEPTOR AGONIST HAVING FUSED RING” (Shionogi & Co., Ltd., priority 2021, published 2024).

Molecular target: T1, Human GLP-1 receptor (Homo sapiens, UniProt P43220)
T1 construct: expressed in transfected cells
Assay: Measurement of GLP-1 receptor agonist activity (cAMP assay)
Type: cell-based
Conditions: cAMP increase in GLP-1 R/CHO-K1 cells, 2 nM human GLP-1 (7-36) = 100%, DMSO only = 0%; for Emax: CHO-K1, maximum effect, read-out: Emax
Summary of the method: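 hGLP-1R/CHO-K1 cells in HBSS with 0.1% BSA, 20 mM HEPES, 0.1 mM IBMX and 0.2 mM RO20-1724 exposed to compound plus forskolin (400 μM stock) for 1 h at 37 °C. Intracellular cAMP read by HTRF (cAMP-d2/anti-cAMP cryptate, 1 h at room temperature).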

T1 sequence (P43220 24-463): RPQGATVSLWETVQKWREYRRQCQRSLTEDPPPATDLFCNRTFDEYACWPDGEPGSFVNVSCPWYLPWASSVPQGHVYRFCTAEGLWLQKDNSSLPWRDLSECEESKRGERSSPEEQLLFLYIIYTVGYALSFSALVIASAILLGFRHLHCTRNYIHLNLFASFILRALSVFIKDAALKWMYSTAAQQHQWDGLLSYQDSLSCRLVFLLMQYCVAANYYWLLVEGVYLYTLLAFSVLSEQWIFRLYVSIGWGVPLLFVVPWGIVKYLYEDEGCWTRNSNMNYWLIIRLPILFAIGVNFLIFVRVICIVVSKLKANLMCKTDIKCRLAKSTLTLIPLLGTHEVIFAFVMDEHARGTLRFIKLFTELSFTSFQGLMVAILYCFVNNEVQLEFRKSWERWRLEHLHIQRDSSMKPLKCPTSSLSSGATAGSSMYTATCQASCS

| SMILES | Emax | EC50 |
| --- | --- | --- |
| COc1ccc(COc2cc3c(cc2C(F)(F)F)CCN(Cc2nc4c(OC)cc(C(=O)O)cc4n2C[C@@H]2CCO2)[C@H]3C)cc1 [Compound I-224] | 110% | 1.41 nM |
| COc1cc(C(=O)O)cc2c1nc(CN1CCc3cc(C(F)(F)F)c(OCc4ccc(Cl)cn4)cc3[C@@H]1C)n2C[C@@H]1CCO1 [Compound I-225] | 104% | 0.348 nM |
| COc1cc(C(=O)O)cc2c1nc(CN1CCc3cc(C(F)(F)F)c(OCc4ccc(Cl)cc4)cc3[C@@H]1C)n2C[C@@H]1CCO1 [Compound I-226] | 112% | 0.628 nM |
| COc1cc(C(=O)O)cc2c1nc(CN1CCc3cc(C(F)(F)F)c(OCc4ccc(C)cc4)cc3[C@@H]1C)n2C[C@@H]1CCO1 [Compound I-227] | 103% | 0.3 nM |
| COc1cc(C(=O)O)cc2c1nc(CN1CCc3cc(C(F)(F)F)c(OCc4ccc(C5CC5)cc4)cc3[C@@H]1C)n2C[C@@H]1CCO1 [Compound I-228] | 106% | 2.41 nM |
| COc1cc(Cl)ccc1COc1cc2c(cc1C(F)(F)F)CCN(Cc1nc3c(OC)cc(C(=O)O)cc3n1C[C@@H]1CCO1)[C@H]2C [Compound I-229] | 105% | 0.0656 nM |
| COc1cc(C(=O)O)cc2c1nc(CN1CCc3cc(C(F)(F)F)c(OCc4ccccc4Cl)cc3[C@@H]1C)n2C[C@@H]1CCO1 [Compound I-230] | 109% | 0.693 nM |
| COc1cc(C(=O)O)cc2c1nc(CN1CCc3cc(C(F)(F)F)c(OCc4ccc(F)cc4F)cc3[C@@H]1C)n2C[C@@H]1CCO1 [Compound I-231] | 106% | 0.282 nM |
| COc1cc(C(=O)O)cc2c1nc(CN1CCc3cc(C(F)(F)F)c(OCc4ccc(Cl)cc4Cl)cc3[C@@H]1C)n2C[C@@H]1CCO1 [Compound I-232] | 117% | 0.223 nM |
| COc1cc(C(=O)O)cc2c1nc(CN1CCc3cc(C(F)(F)F)c(OCc4ccc(OC(F)F)cc4F)cc3[C@@H]1C)n2C[C@@H]1CCO1 [Compound I-233] | 97.7% | 1.29 nM |
| COc1cc(C(=O)O)cc2c1nc(CN1CCc3cc(C(F)(F)F)c(OCc4cc(F)c(Cl)cc4F)cc3[C@@H]1C)n2C[C@@H]1CCO1 [Compound I-234] | 109% | 0.354 nM |
| COc1cc(C(=O)O)cc2c1nc(CN1CCc3cc(C(F)(F)F)c(OCc4ccc(C#N)cc4F)cc3[C@@H]1C)n2C[C@@H]1CCO1 [Compound I-235] | 102% | 0.378 nM |
| COc1cc(C(=O)O)cc2c1nc(CN1CCc3cc(C(F)(F)F)c(OCc4ccc(F)cc4)cc3[C@@H]1C)n2C[C@@H]1CCO1 [Compound I-236] | 106% | 0.429 nM |
| COc1cc(C(=O)O)cc2c1nc(CN1CCc3cc(C(F)(F)F)c(OCc4c(F)cc(Cl)cc4F)cc3[C@@H]1C)n2C[C@@H]1CCO1 [Compound I-237] | 102% | 0.103 nM |
| COc1cc(C(=O)O)cc2c1nc(CN1CCc3cc(C(F)(F)F)c(OCc4c(F)cc(F)cc4F)cc3[C@@H]1C)n2C[C@@H]1CCO1 [Compound I-238] | 106% | 0.36 nM |
| C[C@H]1c2nc(OCc3ccc(Cl)cc3)c(C(F)(F)F)cc2CCN1Cc1nc2c(F)cc(C(=O)O)cc2n1C[C@@H]1CCO1 [Compound I-239] | 95.3% | 0.0882 nM |
| C[C@H]1c2nc(OCc3ccc(C#N)cc3F)c(C(F)(F)F)cc2CCN1Cc1nc2ccc(C(=O)O)c(F)c2n1C[C@@H]1CCO1 [Compound I-240] | 122% | 0.0648 nM |
| C[C@H]1c2nc(OCc3ccc(C#N)cc3F)c(C(F)(F)F)cc2CCN1Cc1nc2c(F)cc(C(=O)O)cc2n1C[C@@H]1CCO1 [Compound I-241] | 125% | 0.0302 nM |
| COc1cc(C(=O)O)cc2c1nc(CN1CCc3cc(C(F)(F)F)c(OCc4ccc(C#N)cc4F)nc3[C@@H]1C)n2C[C@@H]1CCO1 [Compound I-242] | 116% | 0.0124 nM |

| SMILES | Emax | EC50 |
| --- | --- | --- |
| C[C@H]1c2nc(OCc3ccc(Cl)cc3Cl)c(C(F)(F)F)cc2CCN1Cc1nc2ccc(C(=O)O)c(F)c2n1C[C@@H]1CCO1 [Compound I-243] | 111% | 0.0556 nM |
| C[C@H]1c2nc(OCc3ccc(Cl)cc3Cl)c(C(F)(F)F)cc2CCN1Cc1nc2c(F)cc(C(=O)O)cc2n1C[C@@H]1CCO1 [Compound I-244] | 123% | 0.0394 nM |
| C[C@H]1c2nc(OCc3cc(F)c(Cl)cc3F)c(C(F)(F)F)cc2CCN1Cc1nc2ccc(C(=O)O)c(F)c2n1C[C@@H]1CCO1 [Compound I-245] | 109% | 0.0605 nM |
| C[C@H]1c2nc(OCc3cc(F)c(Cl)cc3F)c(C(F)(F)F)cc2CCN1Cc1nc2c(F)cc(C(=O)O)cc2n1C[C@@H]1CCO1 [Compound I-246] | 120% | 0.0264 nM |
| C[C@H]1c2nc(OCc3ccc(Cl)cn3)c(C(F)(F)F)cc2CCN1Cc1nc2ccc(C(=O)O)cc2n1C[C@@H]1CCO1 [Compound I-247] | 121% | 0.351 nM |
| Cc1csc(COc2nc3c(cc2C(F)(F)F)CCN(Cc2nc4ccc(C(=O)O)cc4n2C[C@@H]2CCO2)[C@H]3C)n1 [Compound I-248] | 124% | 0.902 nM |
| C[C@H]1c2nc(OCc3ccc(Cl)cc3)c(C(F)(F)F)cc2CCN1Cc1nc2ccc(C(=O)O)cc2n1C[C@@H]1CCO1 [Compound I-249] | 145% | 0.13 nM |
| Cc1ccc(COc2nc3c(cc2C(F)(F)F)CCN(Cc2nc4ccc(C(=O)O)cc4n2C[C@@H]2CCO2)[C@H]3C)cc1 [Compound I-250] | 121% | 0.164 nM |
| C[C@H]1c2nc(OCc3ccc(C4CC4)cc3)c(C(F)(F)F)cc2CCN1Cc1nc2ccc(C(=O)O)cc2n1C[C@@H]1CCO1 [Compound I-251] | 120% | 0.807 nM |
| COc1cc(Cl)ccc1COc1nc2c(cc1C(F)(F)F)CCN(Cc1nc3ccc(C(=O)O)cc3n1C[C@@H]1CCO1)[C@H]2C [Compound I-252] | 125% | 0.0798 nM |
| C[C@H]1c2nc(OCc3ccccc3Cl)c(C(F)(F)F)cc2CCN1Cc1nc2ccc(C(=O)O)cc2n1C[C@@H]1CCO1 [Compound I-253] | 119% | 0.366 nM |
| C[C@H]1c2nc(OCc3ccc(F)cc3F)c(C(F)(F)F)cc2CCN1Cc1nc2ccc(C(=O)O)cc2n1C[C@@H]1CCO1 [Compound I-254] | 126% | 0.177 nM |
| C[C@H]1c2nc(OCc3ccc(Cl)cc3Cl)c(C(F)(F)F)cc2CCN1Cc1nc2ccc(C(=O)O)cc2n1C[C@@H]1CCO1 [Compound I-255] | 122% | 0.102 nM |
| C[C@H]1c2nc(OCc3ccc(OC(F)F)cc3F)c(C(F)(F)F)cc2CCN1Cc1nc2ccc(C(=O)O)cc2n1C[C@@H]1CCO1 [Compound I-256] | 119% | 0.389 nM |
| C[C@H]1c2nc(OCc3cc(F)c(Cl)cc3F)c(C(F)(F)F)cc2CCN1Cc1nc2ccc(C(=O)O)cc2n1C[C@@H]1CCO1 [Compound I-257] | 115% | 0.0747 nM |
| C[C@H]1c2nc(OCc3ccc(C#N)cc3F)c(C(F)(F)F)cc2CCN1Cc1nc2ccc(C(=O)O)cc2n1C[C@@H]1CCO1 [Compound I-258] | 107% | 0.0911 nM |
| C[C@H]1c2nc(OCc3c(F)cc(Cl)cc3F)c(C(F)(F)F)cc2CCN1Cc1nc2ccc(C(=O)O)cc2n1C[C@@H]1CCO1 [Compound I-259] | 134% | 0.104 nM |
| C[C@H]1c2nc(OCc3c(F)cc(F)cc3F)c(C(F)(F)F)cc2CCN1Cc1nc2ccc(C(=O)O)cc2n1C[C@@H]1CCO1 [Compound I-260] | 115% | 0.128 nM |
